Measurements published in patent publication US10376453B1, “Composition for promoting hair growth containing novel pantetheine derivative” (KOREA INSTITUTE OF OCEAN SCIENCE AND TECHNOLOGY, priority 2016, dated 2019).

Tested on: dermal papilla cells
Assay: Measurement of viability of dermal papilla cells (MTT); promotion of growth of dermal papilla cells
Assay type: cell-based, human
Conditions: 24 hours culture, MTT absorbance at 570 nm, Control = 100
Method: For cell culture, Dulbecco's Modified Eagle Medium (DMEM), fetal bovine serum (FBS), 0.25% trypsin-1 mM EDTA, and penicillin-streptomycin were used, and dermal papilla cells were cultured at 37° C. in a humidified 5% CO2. The medium was replaced twice a week, and the cultured dermal papilla cells were washed with PBS within 6-7 days. Next, the attached cells were separated by 0.05% trypsin-0.02% EDTA, centrifuged, and then subcultured for experiments. Specifically, 200 μl of dermal papilla cells were dispensed into each well of a 96-well plate at a density of 1×10^4 cells/well, and cultured under the conditions of 37° C. and 5% CO2 for 18 hours so as to be attached to each well. After 18 hours, the medium was removed, and 200 μl of samples was added to each well having the cells attached thereto, followed by culture for 24 hours. After the medium was removed, 100 μl of a solution of 3-(4,5-dimethylthiazol)-2,5-diphenyltetrazoliumbromide(MTT), prepared by dissolving MTT in PBS at a concentration of 500 μg/ml, was added to the cultured cells, followed by culture for 4 hours under the same conditions as described above. The formed formazan crystal was dissolved in DMSO, and the absorbance at 570 nm was measured using an ELISA reader. The measured OD values ranging from 0.00 to 3.50 were used for the experimental results. The sample for treatment of the cells was used at concentrations of 0.5, 5 and 50 μM.

`Nc1cc(N2CCCCC2)nc(N)[n+]1[O-]` [minoxidil, reference compound] was tested, and the “Effect on the growth of dermal papilla cells” value (shortened to “Effect on the growth”) (0.5 μM sample) was 146.66, the “Effect on the growth” value (5 μM sample) was 146.52 and the “Effect on the growth” value (50 μM sample) was 140.29.

cinnamoyl-D-pantetheine [S3] was tested, and the “Effect on the growth” value (0.5 μM sample) was 119.77, the “Effect on the growth” value (5 μM sample) was 122.38 and the “Effect on the growth” value (50 μM sample) was 133.33.

`CCC(C)C(=O)SCCNC(=O)CCNC(=O)[C@H](O)C(C)(C)CO` (stereo partly drawn) [S1, 2-methylbutyryl-D-pantetheine] was tested, and the “Effect on the growth” value (0.5 μM sample) was 113.31, the “Effect on the growth” value (5 μM sample) was 129.65 and the “Effect on the growth” value (50 μM sample) was 139.19.

`CC(C)CC(=O)SCCNC(=O)CCNC(=O)[C@H](O)C(C)(C)CO` [S2, 3-methylbutyryl-D-pantetheine] was tested, and the “Effect on the growth” value (0.5 μM sample) was 121.04, the “Effect on the growth” value (5 μM sample) was 114.65 and the “Effect on the growth” value (50 μM sample) was 121.28.

For `C=CCCC(=O)SCCNC(=O)CCNC(=O)[C@H](O)C(C)(C)CO` [S4, 4-pentenoyl-D-pantetheine], the “Effect on the growth” value (0.5 μM sample) was 116.88, the “Effect on the growth” value (5 μM sample) was 122.89 and the “Effect on the growth” value (50 μM sample) was 111.97.

In the case of `CC(C)(CO)[C@@H](O)C(=O)NCCC(=O)NCCSC(=O)c1ccc(O)cc1O` [S7, 2,4-dihydroxybenzoyl-D-pantetheine], the “Effect on the growth” value (0.5 μM sample) is reported as 95.73, the “Effect on the growth” value (5 μM sample) is reported as 97.32 and the “Effect on the growth” value (50 μM sample) is reported as 93.12.

isobutyl formate-D-pantetheine [S6] was tested, and the “Effect on the growth” value (0.5 μM sample) was 130.57, the “Effect on the growth” value (5 μM sample) was 112.94 and the “Effect on the growth” value (50 μM sample) was 135.95.

`C=CCCCCCCCCC(=O)SCCNC(=O)CCNC(=O)[C@H](O)C(C)(C)CO` [S5, 10-undecenoyl-D-pantetheine] was tested, and the “Effect on the growth” value (0.5 μM sample) was 111.24, the “Effect on the growth” value (5 μM sample) was 93.01 and the “Effect on the growth” value (50 μM sample) was 101.62.
